# Experiments:
# Type in all cases: cell-based, human
# ZR-75 = assay: ATP luminescence proliferation assay, ZR-75; settings: ATP luminescence, ZR-75, 72 h incubation; read-out: EC50 ZR-75 (72 h)
# Protocol: (§1) This example generally describes the procedures used to assay the antiproliferative activity of compounds of this invention or their conjugates. Human tumor cell lines were obtained from the American Type Culture Collection (ATCC), P.O. Box 1549, Manassas, Va. 20108, USA, and cultured according to instruction from the ATCC. Cells were seeded at 1.0×10^3 or 1.0×10^4 cells/well in 96-well plates for 3 h for ATP assays or ^3H thymidine assays, respectively. 1:3 serial dilutions of free (unconjugated) compounds or their conjugates were added to the wells. Plates were allowed to incubate for 24 to 72 h. The ^3H thymidine plates were pulsed with 1.0 μCi of ^3H-thymidine per well for the last 24 hours of the total incubation period, harvested, and read on a Top Count Scintillation Counter (Packard Instruments, Meriden, Conn.). ATP levels in the ATP plates were measured using the […]-GLO® Luminescent Cell Viability kit following the manufacturer's manual and read on a GLOMAX® 20/20 luminometer (both from Promega, Madison, Wis., USA). The EC50 values—the concentration at which an agent inhibits or reduces cell proliferation by 50% —were determined using PRISM™ software, version 4.0 (GraphPad Software, La Jolla, Calif., USA).
# (§2) Using the ^3H thymidine or the ATP luminescence assay, or both, the activities of compounds of this invention were assayed against the following cancer cell lines: HCT-15 (colorectal cancer, multi-drug resistant (MDR)); Hep3B (liver cancer); LNCaP (prostate cancer, androgen receptor positive (AR^+)); MDA-MB-231 (breast cancer, estrogen receptor, progesterone receptor, and Her2 negative (triple negative)); A2058 (melanoma); U-87 MG (glioblastoma); NCI-H460 (NSCLC); A549 (NSCLC); HPAC (pancreatic cancer, primary); PC3 (prostate cancer, AR); BT474 (breast cancer, Her2 highly positive (Her2hi)); SKOV3 (ovarian cancer, Her2hi); 786-O (renal cancer); UO-31 (renal cancer, MDR); NCI-H740 (SCLC); DMS53 (SCLC); SK-BR3 (breast cancer, Her2hi); ZR-75 (breast cancer, estrogen receptor positive); OVCAR3 (ovarian cancer); HL-60 (APL); OVCAR8/Adr (ovarian cancer, MDR); CEM-Cl (ALL); Nomo-1 (AML); RPMI-8226 (MM)); Raji (lymphoma); SW-480 (colorectal cancer, metastatic); SW-620 (colorectal cancer); and H226 (lung cancer). (Not all compounds were assayed against all cell lines.)
# (§3) Table 3 provides the data for the ATP luminescence proliferation assays, with an incubation period of 48, 72, or 96 h, as noted.
# LNCaP = assay: ATP luminescence proliferation assay, LNCaP; settings: ATP luminescence, 72 h incubation, read-out: EC50 LNCaP (72 h)
# Protocol: as §1, §2, §3
# NCI-H460 = assay: 3H thymidine proliferation assay, NCI-H460; settings: 3H thymidine method, 72 h incubation; read-out: EC50, NCI-H460
# Procedure, shortened: (§4)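 Proliferation is read as incorporated ^3H-thymidine (1.0 μCi/well, final 24 h) after 72 h with 1:3 dilution series of free compound or conjugate; 1.0×10^4 cells/well. The EC50 is where proliferation falls by 50%.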
# NCI-H740 = assay: ATP luminescence proliferation assay, NCI-H740; settings: H740, 72 h incubation
# Protocol: as §1, with “Calif., USA). […]” for “Calif., USA).”
# as §3
# OVCAR3 = assay: 3H thymidine proliferation assay, OVCAR3; settings: 3H thymidine method, 72 h incubation; read-out: EC50, OVCAR3
# Procedure, shortened: as §4
# CEM-Cl = assay: ATP luminescence proliferation assay, CEM-C1; settings: ATP luminescence, CEM-C1, 72 h incubation; read-out: EC50 CEM-C1 (72 h)
# Protocol: as §1, §2, §3
# Nomo-1 = assay: 3H thymidine proliferation assay, Nomo-1; settings: 3H thymidine method, 72 h incubation; read-out: EC50, Nomo-1
# Procedure, shortened: as §4
# Hep3B = assay: ATP luminescence proliferation assay, Hep3B; settings: ATP luminescence, 48 h incubation, read-out: EC50 Hep3B (48 h)
# Protocol: as §1, §2, §3
# Raji = assay: 3H thymidine proliferation assay, Raji; settings: 3H thymidine method, 72 h incubation; read-out: EC50, Raji
# Procedure, shortened: as §4
# H740 = assay: 3H thymidine proliferation assay, H740; settings: 3H thymidine method, 72 h incubation; read-out: EC50, H740
# Procedure, shortened: as §4
# SK-BR3 = assay: ATP luminescence proliferation assay, SK-BR3; settings: ATP luminescence, SK-BR3, 72 h incubation; read-out: EC50 SK-BR3 (72 h)
# Protocol: as §1, §2, §3
# DMS53 = assay: ATP luminescence proliferation assay, DMS53; settings: ATP luminescence, DMS53, 72 h incubation; read-out: EC50 DMS53 (72 h)
# Protocol: as §1, §2, §3
# U-87 MG = assay: ATP luminescence proliferation assay, U-87 MG; settings: ATP luminescence, 72 h incubation, read-out: EC50 U-87 MG (72 h)
# Protocol: as §1, §2, §3
# A549 = assay: ATP luminescence proliferation assay, A549; settings: ATP luminescence, A549, 48 h incubation; read-out: EC50 A549 (48 h)
# Protocol: as §1, §2, §3
# HCT-15 = assay: ATP luminescence proliferation assay, HCT-15; settings: ATP luminescence, HCT-15, 72 h incubation; read-out: EC50 HCT-15 (72 h)
# Procedure, shortened: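 Cells were seeded at 1.0×10^3 cells/well for 3 h, then given 1:3 serial dilutions of free compound or conjugate and incubated 48, 72 or 96 h. Cellular ATP was read by luminescent viability kit, and EC50 was the concentration reducing proliferation by 50%.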
smiles,measurement,setting,value
"CC[C@H](C)[C@H](NC(=O)[C@H]1CCCCN1C)C(=O)N(COC(=O)CC(C)C)[C@H](C[C@@H](OC(C)=O)c1nc(C(=O)N[C@@H](Cc2ccccc2)C[C@H](C)C(=O)O)cs1)C(C)C [Tub D, tubulysin D, reference compound]",EC50,ZR-75,0.034 nM
same,EC50,LNCaP,0.093 nM
same,EC50,NCI-H460,0.032 nM
same,EC50,NCI-H740,0.022 nM
same,EC50,OVCAR3,0.051 nM
same,EC50,CEM-Cl,3 pM
same,EC50,Nomo-1,0.042 nM
same,EC50,Hep3B,1.2 pM
same,EC50,Raji,0.013 nM
same,EC50,H740,2.2 nM
same,EC50,SK-BR3,0.025 nM
same,EC50,DMS53,0.069 nM
same,EC50,U-87 MG,5.4 pM
same,EC50,A549,0.02 nM
same,EC50,HCT-15,0.014 nM
